Measured values published in patent US11464751B2, “Use of fluoroethylnormemantine for the prevention and treatment of anxiety” (REST THERAPEUTICS, priority 2017, dated 2022).
Blank lines part the entries; values can stand above or below the compound they belong to.

Key:
[1] = tested on: naive rats (Wistar); assay: Open-field test (locomotor activity and anxiety); format: in vivo, rat; conditions: for drowsiness effect / overall activity level of the animals: open field over 2 hours, FENM even at high doses, memantine 10 mg/kg
Method: (§1) Thus, to test state anxiety, several animal models are commonly used and have been validated by numerous studies: • open field test: This consists of forcibly exposing the animal (rat or mouse) to a new environment and observing its behavior. […] Locomotor activity and behavior are then assessed by recording the number of crossings of the grid lines, the frequency of retreats, the number of entries and the time spent in the central squares. This animal model is considered a good model of “normal” anxiety when adapting to a new environment. It has good predictability of human response to treatment (L. Prut, European Journal of Pharmacology 463 (2003) 3-33). The open-field test is also useful, when it is prolonged (behavioral recording time over 2 hours), as it allows monitoring the motor activity of the animals and thus their state of wakefulness, whereas measurements at short times give information on anxiety. • the light-dark box test: another animal model of anxiety is based on the aversive properties of an open-field space and on the comparison of exploratory activities in a lit compartment and in a dark compartment under the influence of anxiolytic substances (M Bourin, European Journal of Pharmacology 463 (2003) 55-65). This paradigm is based on rodents' innate aversion to bright places and on rodents' spontaneous exploratory behavior in response to stressful environments (new environment or light). The test device is divided into two compartments, one is small, dark and safe, the second is large, bright and stressful. This paradigm allows the prediction of anxiolytic or anxiogenic drug-like activities in mice. Passages between each compartment are a cue of exploration activity, while the time spent in each compartment reflects aversion. Anxiolytics, effective in humans, classic (benzodiazepines) as well as more recent anxiolytic compounds (serotonergic drugs or drugs acting on neuropeptide receptors) can be detected by this animal model which has the advantage of being simple and quick to use. • The open-field test with light gradient: the two models described above can be judiciously coupled in order to check the anxiolytic potential of a molecule, by eliminating the “burrow” effect induced by the presence of the dark compartment.
(§2) In the following examples, the effects of memantine, propranolol and fluoroethylnormemantine (FENM, the subject of the present invention) are studied in naive rats (Wistar) subjected to various tests related to depression or anxiety and then compared.
(§3) The test substances are administered to rats intraperitoneally in a volume of 5 ml/kg, 30 minutes before the behavioral tests are performed.
(§4) The injected solutions contain either of the molecules in the form of one of their salts, a hydrochloride (memantine·HCl and FENM·HCl) for the nitrogen derivatives and as such for propranolol, at the concentrations indicated below in a mixture of 95% (NaCl 0.9% ww in water)/5% ethanol. In each experiment, the dose per kilogram is referenced.
In this way, the animals are given a constant volume of solution (to the nearest difference in weight) equal to 5 ml/kg, or 1.5 ml for a 300 g rat.
(§5) For each paradigm, and each solution tested, 12 rats are subjected to injection and behavioral testing. The control solution is a saline solution.
• Open-field test: The locomotor activity of the animals and the “normal” anxiety associated with the discovery of an unknown environment are measured in an open field using a video monitoring system for 2 hours, 30 minutes after the injection of the solutions to be tested. The recorded data include, with a reading every 5 minutes, the time spent in the central squares, vertical activity, and the number of displacements.

[2] = tested on: naive rats (Wistar); assay: Open-field test with light gradient; format: in vivo, rat
Method: as §1, §2, §3, §4, §5
In this example the light-dark box test was modified by eliminating the compartmentalization of the box and using a high-intensity light gradient (600 lux). As it is based on rodents' innate aversion to light, the increase in time spent in the area closest to the light source is therefore considered to reflect a lower level of anxiety.
The animals are exposed to a 12-minute sequence, broken down into three parts, 4 minutes in darkness (ambient light of 5 lux), 4 minutes in the presence of the light gradient and 4 minutes again in darkness. Displacements are recorded in the same way as for the open-field test. The field of view is divided into 4 zones numbered from 1 to 4 according to the increasing distance from the light source.

[3] = tested on: naive rats (Wistar); assay: Pre-pulse inhibition (PPI) test, sensory filtering; format: in vivo, rat; conditions: for Percentage of pre-pulse inhibition, Average: average over first pulse intensities; for effect on PPI (schizophrenia-inducing effect): memantine 10 mg/kg (p<0.01), FENM even at high dose (20 mg/kg)
Text: • Pre-pulse inhibition (PPI) test: One of the major problems of treatments targeting the central nervous system remains the achievement of the desired effect without the appearance of crippling psychological side effects, even exceeding the therapeutic benefit of the treatment. These effects are often significant (the rebound effect of benzodiazepines) or even paradoxical (the anxiety-producing effect of short-term serotonin reuptake inhibitors). In particular, they can induce a destabilization of sensory filtering and generate symptoms similar to schizophrenia.
(§6) Pre-impulse inhibition testing is based on the brain's ability to adapt to a moderate-intensity stimulus in order to limit the effect of the same high-intensity stimulus. In this test, the animals are placed in a soundproof cage and subjected either to a sound pulse of 120 decibels (dB) or to a sequence of 2 pulses spaced about 100 milliseconds apart, the second pulse being of fixed intensity of 120 dB and the first of variable intensity between 70 and 85 dB).
In animals with psychotic disorders of a schizophrenic nature, this inhibition is more or less eliminated.
as §2, §3, §4
as §6, with “the animals (12 per group) are placed” for “the animals are placed”, “being of a fixed intensity” for “being of fixed intensity”

[4] = target: NMDA receptor; assay: Affinity with the NMDA receptor; format: binding; conditions: compared with memantine
[5] = 10 mg/kg i.p., 30 min before test, 0-5 min
[6] = 10 mg/kg i.p., first pulse 72 dB
[7] = 10 mg/kg i.p., first pulse 76 dB
[8] = 10 mg/kg i.p., first pulse 80 dB
[9] = 10 mg/kg i.p., first pulse 84 dB

Vertical activity ([1]; 5 mg/kg i.p., 0-5 min): 40.67 | Vertical activity ([1]; 5 mg/kg i.p., 0-10 min): 71.17 | Number of displacements ([1]; 5 mg/kg i.p., 0-120 min): 1600 | Vertical activity ([1]; 5 mg/kg i.p., 0-120 min): 136.00 | Vertical activity ([1]; 5 mg/kg i.p., 5-10 min): 30.50 | Vertical activity ([1]; 10 mg/kg i.p., 0-5 min): 52.33 | Vertical activity ([1]; 10 mg/kg i.p., 0-10 min): 86.42 | Number of displacements ([1]; 10 mg/kg i.p., 0-120 min): 1800 | Vertical activity ([1]; 10 mg/kg i.p., 0-120 min): 173.75 | Vertical activity ([1]; 10 mg/kg i.p., 5-10 min): 34.08 | Vertical activity ([1]; 20 mg/kg i.p., 0-5 min): 47.33 | Vertical activity ([1]; 20 mg/kg i.p., 0-10 min): 66.58 | Number of displacements ([1]; 20 mg/kg i.p., 0-120 min): 2100 | Vertical activity ([1]; 20 mg/kg i.p., 0-120 min): 208.92 | Vertical activity ([1]; 20 mg/kg i.p., 5-10 min): 19.25 | drowsiness effect / overall activity level of the animals [1]: does not generate the drowsiness effect | Percentage of pre-pulse inhibition, Average ([3]; 5 mg/kg i.p.): 42% | Percentage of pre-pulse inhibition as a function of the intensity of the first pulse ([3]; 5 mg/kg i.p., first pulse 72 dB): 24% | Percentage of pre-pulse inhibition as a function of the intensity of the first pulse ([3]; 5 mg/kg i.p., first pulse 76 dB): 37% | Percentage of pre-pulse inhibition as a function of the intensity of the first pulse ([3]; 5 mg/kg i.p., first pulse 80 dB): 47% | Percentage of pre-pulse inhibition as a function of the intensity of the first pulse ([3]; 5 mg/kg i.p., first pulse 84 dB): 60% | Percentage of pre-pulse inhibition, Average ([3]; 10 mg/kg i.p.): 45% | Percentage of pre-pulse inhibition as a function of the intensity of the first pulse [3, 6]: 27% | Percentage of pre-pulse inhibition as a function of the intensity of the first pulse [3, 7]: 39% | Percentage of pre-pulse inhibition as a function of the intensity of the first pulse [3, 8]: 51% | Percentage of pre-pulse inhibition as a function of the intensity of the first pulse [3, 9]: 64% | Percentage of pre-pulse inhibition, Average ([3]; 20 mg/kg i.p.): 48% | Percentage of pre-pulse inhibition as a function of the intensity of the first pulse ([3]; 20 mg/kg i.p., first pulse 72 dB): 31% | Percentage of pre-pulse inhibition as a function of the intensity of the first pulse ([3]; 20 mg/kg i.p., first pulse 76 dB): 46% | Percentage of pre-pulse inhibition as a function of the intensity of the first pulse ([3]; 20 mg/kg i.p., first pulse 80 dB): 54% | Percentage of pre-pulse inhibition as a function of the intensity of the first pulse ([3]; 20 mg/kg i.p., first pulse 84 dB): 62% | effect on PPI (schizophrenia-inducing effect) [3]: induces no effect
Structure (SMILES): NC12CC3CC(C1)CC(CCF)(C3)C2
Mean time spent in the central squares per time interval ([1]; 5 mg/kg i.p., 30 min before test, 0-5 min): 128.8 s | Mean time spent in the central squares per time interval ([1]; 5 mg/kg i.p., 0-10 min): 216.8 s | Mean time spent in the central squares per time interval ([1]; 5 mg/kg i.p., 0-120 min): 1563.6 s | Mean time spent in the central squares per time interval ([1]; 5 mg/kg i.p., 5-10 min): 88.0 s | Mean time spent in the central squares per time interval [1, 5]: 116.8 s | Mean time spent in the central squares per time interval ([1]; 10 mg/kg i.p., 0-10 min): 226.7 s | Mean time spent in the central squares per time interval ([1]; 10 mg/kg i.p., 0-120 min): 1803.8 s | Mean time spent in the central squares per time interval ([1]; 10 mg/kg i.p., 5-10 min): 109.9 s | Mean time spent in the central squares per time interval ([1]; 20 mg/kg i.p., 30 min before test, 0-5 min): 129.8 s | Mean time spent in the central squares per time interval ([1]; 20 mg/kg i.p., 0-10 min): 235.7 s | Mean time spent in the central squares per time interval ([1]; 20 mg/kg i.p., 0-120 min): 1692.8 s | Mean time spent in the central squares per time interval ([1]; 20 mg/kg i.p., 5-10 min): 105.9 s | Percentage of time spent in the area closest to the light source ([2]; 5 mg/kg i.p., Dark 1 (Habituation)): 32% | Percentage of time spent in the area closest to the light source ([2]; 5 mg/kg i.p., Dark 2 (Relief)): 30% | Percentage of time spent in the area closest to the light source ([2]; 5 mg/kg i.p., Light 600 lux (Stress)): 22% | anxiety effect (avoidance of the most strongly illuminated area) ([2]; 10 mg/kg dose): completely eliminated | Percentage of time spent in the area closest to the light source ([2]; 10 mg/kg i.p., Dark 1 (Habituation)): 29% | Percentage of time spent in the area closest to the light source ([2]; 10 mg/kg i.p., Dark 2 (Relief)): 34% | Percentage of time spent in the area closest to the light source ([2]; 10 mg/kg i.p., Light 600 lux (Stress)): 30% | Percentage of time spent in the area closest to the light source ([2]; 20 mg/kg i.p., Dark 1 (Habituation)): 39% | Percentage of time spent in the area closest to the light source ([2]; 20 mg/kg i.p., Dark 2 (Relief)): 29% | Percentage of time spent in the area closest to the light source ([2]; 20 mg/kg i.p., Light 600 lux (Stress)): 21% | affinity with the NMDA receptor (measured in Ki) [4]: same order of magnitude as that of memantine

Vertical activity ([1]; 10 mg/kg i.p., 0-5 min): 11.33 | Vertical activity ([1]; 10 mg/kg i.p., 0-10 min): 16.00 | Number of displacements ([1]; 10 mg/kg i.p., 0-120 min): 750 | Vertical activity ([1]; 10 mg/kg i.p., 0-120 min): 60.08 | Vertical activity ([1]; 10 mg/kg i.p., 5-10 min): 4.67 | drowsiness effect / overall activity level of the animals [1]: decreases the overall activity level | Percentage of pre-pulse inhibition, Average ([3]; 10 mg/kg i.p.): 31% | Percentage of pre-pulse inhibition as a function of the intensity of the first pulse [3, 6]: 19% | Percentage of pre-pulse inhibition as a function of the intensity of the first pulse [3, 7]: 24% | Percentage of pre-pulse inhibition as a function of the intensity of the first pulse [3, 8]: 36% | Percentage of pre-pulse inhibition as a function of the intensity of the first pulse [3, 9]: 44% | effect on PPI (schizophrenia-inducing effect) [3]: induces an inhibition of the PPI effect
Structure (SMILES): CC12CC3CC(C)(C1)CC(N)(C3)C2 [Memantine, memantine]
Mean time spent in the central squares per time interval [1, 5]: 90.4 s | Mean time spent in the central squares per time interval ([1]; 10 mg/kg i.p., 0-10 min): 136.8 s | Mean time spent in the central squares per time interval ([1]; 10 mg/kg i.p., 0-120 min): 1874.8 s | Mean time spent in the central squares per time interval ([1]; 10 mg/kg i.p., 5-10 min): 46.3 s
